Laboratory results published in US20250134938A1 (priority 2023, published 2025).
“And” between values parts separate entries of the source, which are not always exact repeats. Identical values can stand only once.

Columns and labels:
[1] = Acid resistance in artificial gastric fluid; type: physicochemical; conditions: pH 2.5, 2 h
Method: Artificial gastric fluid was prepared by adjusting the pH of 100 mM glycine-HCl buffer to 2.5. After inoculating Lactobacillus seed culture incubated at 37° C. for 20 hours to 1% (v/v) in 4 mL of MRS broth, the culture was incubated at 37° C. for 16 hours. The culture was centrifuged at 13000 rpm for 1 minute and the obtained cell precipitate was washed twice with 0.88% (w/v) NaCl (sterile physiological saline). The washed pellet was resuspended in 4 mL of the artificial gastric fluid and incubated at 37° C. After 2 hours of incubation, 1 mL of the sample was taken and centrifuged at 13000 rpm for 1 minute to obtain a cell pellet, which was washed three times with sterile physiological saline and resuspended in 1 mL of sterile physiological saline. After decimally diluting with 9 mL saline, followed by smearing on LAB Petrifilm, the sample was incubated at 37° C. for 1-2 days and the live bacteria were counted (Table 12). Acid resistance was calculated using the following equation. The sample at 0 hour of incubation was used as a control group. [formula]

[2] = DPPH radical scavenging assay; type: biochemical; conditions: culture supernatant; relative to 2 mM ascorbic acid
Method: Louis, MO, USA) radical scavenging assay. […] 0.1 mM DPPH diluted in methanol was used in the experiment. […] The reaction mixture was centrifuged at 13,000 rpm for 1 minute. 200 μL of the supernatant was dispensed into a 96-well plate, and absorbance was measured at 517 nm using a microplate reader (Epoch microplate reader, Biotek Instruments, Inc., Winooski, VT, USA). DPPH radical scavenging activity was calculated using the following equation and expressed as a relative value to the DPPH radical scavenging activity of the positive control group, 2 mM ascorbic acid. DPPH Radical Scavenging Activity (%)=(1-(Absorbance of Sample/Absorbance of Control Group))×100

[3] = Pancreatic juice resistance in artificial pancreatic juice; type: physicochemical; conditions: 0.5% pancreatin, listed as LGG
Method: Artificial pancreatic juice was prepared by adding 5% of a 10% pancreatin solution (0.85% NaCl, pH 8.0) filtered through a 0.22-μm membrane to sterilized MRS broth to a final pancreatin concentration of 0.5%. A Lactobacillus seed culture obtained by incubating at 37° C. for 20 hours after inoculation to MRS broth was added to 5 mL of the artificial pancreatic juice to 1% (v/v) and incubated at 37° C. […] Pancreatic juice resistance was calculated using the following equation. A sample at 0 hour of incubation was used as a control group. [formula]

[4] = Number of live bacteria and pH of coconut fermented milk; conditions: coconut milk fermented at 37° C. for 16 hours; listed as LGG
Method: Then, cells were harvested by centrifuging the Lactobacillus culture (13,000 rpm, 1 minute, 4° C.). The cell precipitate was washed 3 times with 0.85% (w/v) NaCl (sterile physiological saline) and then suspended in 1 mL of sterile physiological saline (The concentration of the suspension was 1×10^8 CFU/mL). (2) 1% (v/v) of the suspended strain was inoculated to 3 mL of coconut milk with a solid content of 8 wt %, and coconut fermented milk was prepared by fermenting at 37° C. for 16 hours. After measuring the pH of the coconut fermented milk prepared in Example 11-1, it was decimally diluted with sterile physiological saline and the number of live bacteria was counted on a […] lactic acid bacteria count plate (3M Company, St. Paul, MN, USA) after culturing for 1 to 2 days.

[5] = Bile resistance in artificial bile; type: physicochemical; conditions: 0.3% oxgall, 37° C., 24 hours
Method: Artificial bile was prepared by adding 3% of a 10% Bacto oxgall (Becton, Dickinson and Company) solution filtered through a 0.22-μm membrane to sterilized MRS broth to give a final oxgall concentration of 0.3%. […] 1 mL of the sample was taken, diluted decimally with 9 mL of saline, smeared on LAB Petrifilm, and incubated at 37° C. for 1-2 days to determine the number of live bacteria (Table 13). Bile resistance was calculated using the following equation. A sample incubated in MRS broth without addition of oxgall was used as a control group.

[6] = system: Caco-2 cells; assay: Ability of intestinal adherence; type: cell-based, human; conditions: MOI 200, 2 hours, listed as LGG
Method: Caco-2 cells (human colorectal adenocarcinoma cells, HTB-37™), which are enterocyte-like cells, purchased from the ATCC were cultured in DMEM medium supplemented with 10% (v/v) FBS (Cornig) and 1% (v/v) P/S at 37° C. under 5% CO2 in an incubator (Thermo Fisher Scientific, Waltham, MA, USA). 0.25% trypsin-EDTA (GIBCO) was used to detach the cells from a culture flask.
500 μL of the Caco-2 cells were seeded in a 24-well plate at a density of 5×10^5 cells/well and cultured for 3 days at 37° C. and 5% CO2. The 24-well plate in which the Caco-2 cells were cultured was washed twice with 500 μL of DMEM medium supplemented with 10% FBS. After treating with Lactobacilli at a concentration of MOI 200, the cells were incubated at 37° C. and 5% CO2 for 2 hours. After the incubation, each well was washed four times with 500 μL of DPBS to remove the unattached strain. 200 μL of 0.25% trypsin-EDTA was dispensed into each well and incubated for 5 minutes at 37° C. and 5% CO2. The detached Caco-2 cells and strain were collected in a 1.5-mL tube together with […] of DPBS and centrifuged at 13,000 rpm for 1 minute to harvest a cell pellet, which was washed twice with 1 mL of DPBS. […] After decimal dilution, followed by smearing on Petrifilm and incubation at 37° C. for 24 hours, the number of live bacteria was determined. The ability of intestinal adhesion was calculated by the following equation.

[7] = system: RAW 264.7 cells; assay: NO production by RAW 264.7 macrophages (Griess reagent); type: cell-based, mouse; conditions: MOI 100, 24 hours, LPS 1 μg/mL as 100%
Method: RAW 264.7 cells (KCLB40071), which are mouse macrophages, were purchased from the Korean Cell Line Bank. They were inoculated to DMEM (high-glucose Dulbecco's modified Eagle's medium; GIBCO, Grand Island, NY, USA) containing 10% (v/v) fetal bovine serum (FBS, GIBCO) and 1% (v/v) penicillin-streptomycin (P/S, GIBCO), cultured at 37° C. in a 5% CO2 incubator (Thermo Fisher Scientific, Waltham, MA, USA), and then detached using a cell scraper (SPL, Pocheon, Korea).
Cell precipitates were harvested by centrifugation at 10,000 rpm for 5 minutes at 4° C. for 5 times. Afterward, they were washed three times with DPBS (Dulbecco's phosphate buffered saline; Welgene, Gyeongsan, Korea). […]
NO production by RAW 264.7 macrophages was measured using a Griess reagent. […] 100 µL of the culture was added to a 96-well plate and, after adding 100 μL of a Griess reagent A and a Griess reagent B of equal amounts, reaction was conducted for 15 minutes in the dark, and absorbance was measured at 540 nm with a microplate reader. A standard curve for NO production versus absorbance was constructed using a sample of 250 µM NaNO2 diluted 2-fold with DMEM to […], and NO concentration was calculated from the measured absorbance value.

Substance: Lactobacillus rhamnosus GG
- Acid resistance (%) Average [1]: 83.3%
- Acid resistance (%) Average ([1]; listed as LGG): 83.3 ± 2.3%
- Acid resistance (%) ([1]; single replicate, listed as LGG): 81.2% and 85.8% and 83.0%
- DPPH radical scavenging activity (%) [2]: 97.2%
- live bacteria 0 h (CFU/mL) ([3]; 0 h (control)): 1.30 × 10^9 CFU/mL and 1.73 × 10^9 CFU/mL and 1.12 × 10^9 CFU/mL
- live bacteria 2 h (CFU/mL) ([3]; 37° C., 2 h): 3.14 × 10^9 CFU/mL and 3.87 × 10^9 CFU/mL and 2.74 × 10^9 CFU/mL
- Pancreatic juice resistance (%) Average ([3]; average): 104.1% and 104.1 ± 0.3%
- Pancreatic juice resistance (%) ([3]; single replicate): 104.2% and 103.8% and 104.3%
- pH [4]: 3.57 and 3.57 ± 0.06
- Bile resistance (%) [5]: 63.6 ± 9.3%
- Ability of intestinal adherence (%) [6]: 75.5% and 75.5 ± 9.3%
- NO production (% of positive control group) [7]: 18.5 ± 3.2%
- NO production (% of positive control group) ([7]; listed as LGG): 18.47%
